We go through 14 compounds from US20060205733A1, “Endothelin a receptor antagonists in combination with phosphodiesterase 5 inhibitors and uses thereof” (Encysive Pharmaceuticals, priority 2004, published 2006).

The target in data set [1] is T1, ETB (Homo sapiens, UniProt P24530).
T1 sequence (P24530 27-442): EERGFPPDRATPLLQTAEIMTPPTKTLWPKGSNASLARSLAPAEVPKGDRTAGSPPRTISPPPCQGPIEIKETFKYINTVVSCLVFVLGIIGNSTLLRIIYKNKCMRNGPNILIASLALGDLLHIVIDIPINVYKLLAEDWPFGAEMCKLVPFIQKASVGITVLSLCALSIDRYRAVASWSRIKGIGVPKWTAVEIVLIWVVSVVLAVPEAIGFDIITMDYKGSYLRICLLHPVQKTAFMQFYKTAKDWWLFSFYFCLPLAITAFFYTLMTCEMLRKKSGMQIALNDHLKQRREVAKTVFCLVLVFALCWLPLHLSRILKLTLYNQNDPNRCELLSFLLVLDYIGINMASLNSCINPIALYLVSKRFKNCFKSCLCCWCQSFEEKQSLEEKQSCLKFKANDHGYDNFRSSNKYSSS
The settings on record: read-out: Binding K1 (nM) to ETB; cited from earlier work.

For data set [2] the following is noted: in vivo; cited from earlier work.
A further data set concerns the target bile salt export pump (Homo sapiens, UniProt O95342). The note with it: cited from earlier work.
A further data set concerns cytochrome P450 enzymes. The note with it: in vivo; cited from earlier work.
Data set [3] addresses T2, ETA (Homo sapiens, UniProt P25101).
T2 sequence (P25101 21-427): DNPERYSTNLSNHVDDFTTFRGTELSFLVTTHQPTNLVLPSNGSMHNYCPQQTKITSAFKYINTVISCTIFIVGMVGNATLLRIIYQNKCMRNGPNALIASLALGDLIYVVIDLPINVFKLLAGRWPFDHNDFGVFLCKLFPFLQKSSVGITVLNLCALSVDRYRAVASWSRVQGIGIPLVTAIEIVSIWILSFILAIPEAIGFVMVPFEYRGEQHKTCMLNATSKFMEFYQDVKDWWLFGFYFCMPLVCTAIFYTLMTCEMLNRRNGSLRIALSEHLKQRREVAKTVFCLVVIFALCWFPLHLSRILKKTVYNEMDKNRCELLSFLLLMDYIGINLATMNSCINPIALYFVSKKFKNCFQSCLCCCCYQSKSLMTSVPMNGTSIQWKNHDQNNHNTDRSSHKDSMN
The settings on record: cited from earlier work; for Selectivity: ETA versus ETB, Table 2.

Data set [4] in a line: Pharmacokinetic drug interaction study, sitaxsentan and sildenafil. It counts as in vivo, human. The settings on record: for Cmax: healthy subjects; for Cmax / AUC0-t / AUC∞ / CL/F / t½ / λz / AUC(0-inf) / Vd/F / half-life: mean ± SD; for Tmax: median; for Vd/F: read-out: Vz/F; for half-life: read-out: t½ (converted). As to the method:
A pharmacokinetic drug interaction study was performed using 24 individuals. In the study, a group of 24 normal, healthy volunteers participated in two treatment periods. […] During the other treatment period, the subjects received placebo for seven days and 100 mg of VIAGRA on the seventh day. Twelve subjects were randomly assigned to each treatment period. When the subjects finished one treatment period, they were switched to the other treatment period.
Samples were drawn (in duplicate) once on days 1, 3, 5 and 6; 15 times on day 7 and once again on day 8 for each treatment period. The samples were stored at a nominal temperature of −20° C. for a duration not exceeding 38 days. All samples were analyzed with a set of calibration standards and low, medium and high concentration Quality Control samples.

The target in data set [5] is T3, ETA (Sus scrofa, UniProt Q29010).
T3 construct: from tissue; host or cells: aortic smooth muscle, ventricle membranes, cultured aortic smooth muscle cells
T3 sequence (Q29010 21-427): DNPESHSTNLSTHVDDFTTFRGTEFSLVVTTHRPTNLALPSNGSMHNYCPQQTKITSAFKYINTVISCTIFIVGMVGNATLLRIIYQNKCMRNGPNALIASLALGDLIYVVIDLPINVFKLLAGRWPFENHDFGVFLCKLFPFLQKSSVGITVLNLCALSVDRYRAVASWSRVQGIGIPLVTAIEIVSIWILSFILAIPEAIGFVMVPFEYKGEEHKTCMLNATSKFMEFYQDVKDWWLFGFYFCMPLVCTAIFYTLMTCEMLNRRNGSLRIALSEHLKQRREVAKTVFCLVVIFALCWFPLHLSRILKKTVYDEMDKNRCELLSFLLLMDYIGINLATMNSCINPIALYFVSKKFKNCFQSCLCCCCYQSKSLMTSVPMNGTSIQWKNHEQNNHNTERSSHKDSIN
The note with it: read-out: IC50, inhibition of 125I-labeled endothelin-1 binding, cited from earlier work.

Data set [6] concerns the target T1, ETB. The note with it: concentrations up to 100 μM; cited from earlier work.
Where [7] appears, read: read-out: Binding K1 (nM) to ETA.
The mark [8] stands for this setting: single 100 mg oral sildenafil after 100 mg sitaxsentan daily for seven days.
[9] abbreviates: single 100 mg oral sildenafil after placebo daily for seven days.
Setting [10] is: sitaxsentan versus placebo pretreatment, natural log-transformed data.
The mark [11] stands for this setting: human, plasma, po, 100 mg, single 100 mg oral sildenafil after 100 mg sitaxsentan daily for seven days.
[12] abbreviates: human, plasma, po, 100 mg, single 100 mg oral sildenafil after placebo daily for seven days.

Where a name gives a salt, the structure may show the parent alone. Read-outs that look alike come from different tables or passages of the source.

Chain of bile salt export pump (O95342 whole entry): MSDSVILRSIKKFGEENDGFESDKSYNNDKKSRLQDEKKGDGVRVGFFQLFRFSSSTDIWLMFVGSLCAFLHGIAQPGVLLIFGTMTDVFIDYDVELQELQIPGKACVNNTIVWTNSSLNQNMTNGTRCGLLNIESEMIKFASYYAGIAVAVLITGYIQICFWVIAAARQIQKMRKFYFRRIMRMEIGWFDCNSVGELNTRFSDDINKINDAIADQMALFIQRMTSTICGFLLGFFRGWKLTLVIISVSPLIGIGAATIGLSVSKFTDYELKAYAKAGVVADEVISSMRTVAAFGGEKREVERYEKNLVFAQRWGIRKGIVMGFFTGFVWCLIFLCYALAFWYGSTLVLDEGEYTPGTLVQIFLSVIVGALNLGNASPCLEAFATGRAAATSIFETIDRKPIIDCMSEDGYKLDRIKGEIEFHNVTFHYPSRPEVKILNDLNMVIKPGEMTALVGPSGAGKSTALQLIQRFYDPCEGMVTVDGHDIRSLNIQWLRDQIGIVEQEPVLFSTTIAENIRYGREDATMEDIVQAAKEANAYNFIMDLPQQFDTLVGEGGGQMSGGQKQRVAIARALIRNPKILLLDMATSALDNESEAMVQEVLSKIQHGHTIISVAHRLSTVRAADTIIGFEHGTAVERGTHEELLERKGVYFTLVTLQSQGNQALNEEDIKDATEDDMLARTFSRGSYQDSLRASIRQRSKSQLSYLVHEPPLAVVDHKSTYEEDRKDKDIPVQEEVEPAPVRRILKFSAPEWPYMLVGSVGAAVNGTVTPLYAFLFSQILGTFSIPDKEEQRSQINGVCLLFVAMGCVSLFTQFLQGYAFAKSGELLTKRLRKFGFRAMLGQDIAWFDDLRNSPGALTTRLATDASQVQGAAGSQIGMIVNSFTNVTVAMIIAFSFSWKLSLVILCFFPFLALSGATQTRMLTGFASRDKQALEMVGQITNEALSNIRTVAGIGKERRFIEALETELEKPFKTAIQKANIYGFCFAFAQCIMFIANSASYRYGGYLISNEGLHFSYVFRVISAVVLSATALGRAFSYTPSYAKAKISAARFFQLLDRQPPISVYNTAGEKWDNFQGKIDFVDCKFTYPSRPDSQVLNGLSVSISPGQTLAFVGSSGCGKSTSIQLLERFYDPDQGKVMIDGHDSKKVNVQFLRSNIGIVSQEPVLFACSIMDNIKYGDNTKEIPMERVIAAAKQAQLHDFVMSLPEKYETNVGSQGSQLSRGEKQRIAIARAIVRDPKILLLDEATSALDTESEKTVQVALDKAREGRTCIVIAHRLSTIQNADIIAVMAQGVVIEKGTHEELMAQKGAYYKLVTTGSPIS

For the compound `Cc1noc(NS(=O)(=O)c2cccc3c(N(C)C)cccc23)c1C` [BMS-182874], at ETB [1], the Ki is > 50000 nM.

With `COc1ccccc1Oc1c(NS(=O)(=O)c2ccc(C(C)(C)C)cc2)nc(-c2ncccn2)nc1OCCO` [Bosentan], in data set [2], the Metabolism entry is “Through 3A4 and 2C9”; the Route of elimination result is on record as “Hepatic”; the t1/2 was 5 h. Also, at bile salt export pump, the “Effect on bile salt” value is “Inhibits bile salt”. Further, the “Induction of cytochrome P450 enzymes” value in the data set on cytochrome P450 enzymes was “Causes inhibition,”.

In the case of `CCCCc1ccc2c(n1)[C@@H](c1ccc(OC)cc1C[C@H](C)C(=O)O)[C@H](C(=O)O)[C@H]2c1ccc2c(c1)OCO2` [J-104132], the Selectivity on ETA [3] was 2.9. The values for the Ki at ETA [3] (setting [7]) and on ETB [1] were 0.034 nM and 0.1 nM, respectively.

On to `COc1cc(OC)nc(O[C@H](C(=O)O)C(OC)(c2ccccc2)c2ccccc2)n1` [LU-135252], for which the Selectivity at ETA [3] is recorded as 130. For the same compound, the Ki is 1.4 nM at ETA [3] (setting [7]) and 184 nM on ETB [1].

Consider `CCCc1nn(C)c2c(=O)[nH]c(-c3cc(S(=O)(=O)N4CCNCC4)ccc3OCC)nc12` [N-Desmethyl Sildenafil], for which, in data set [4] (in the presence of sitaxsentan), the “Effect of sitaxsentan on levels of the active metabolite” value is “No effects”. In data set [4] (setting [8]), the Cmax is recorded as 104 ± 40.8 ng/mL, the AUC0-t was 389 ± 105 ng·h/mL, the “AUC∞” value came to 425 ± 115 ng·h/mL and the CL/F is recorded as 529 ± 164 mL/min. In data set [4] (setting [8]), the t½ is given as 5.14 ± 2.13 h, the λz was 0.1544 ± 0.0552 h⁻¹ and the Tmax was 1.00 h. Further, in data set [4] (setting [9]), the Cmax came out at 109 ± 53.1 ng/mL, the AUC0-t stood at 372 ± 107 ng·h/mL, the “AUC∞” value worked out at 440 ± 112 ng·h/mL and the CL/F is 524 ± 234 mL/min. Also, in data set [4] (setting [9]), the t½ is given as 05.1 ± 1.63 h, the λz was 0.1506 ± 0.0569 h⁻¹ and the Tmax is 1.00 h. For the same compound, in data set [4] (setting [10]), the “AUC0-t, geometric mean ratio (%) estimate” value is 112.43%; the “AUC∞, geometric mean ratio (%) estimate” value was 105.78%; the “CL/F, geometric mean ratio (%) estimate” value was 88.95%; the “Cmax, geometric mean ratio (%) estimate” value is on record as 100.70%. Further, the “Vz/F, geometric mean ratio (%) estimate” value in data set [4] (setting [10]) is listed as 94.89%.

As to `COc1ccccc1Oc1c(NS(=O)(=O)c2ccc(C)cn2)nc(-c2ccnc(-c3nnn[nH]3)c2)nc1OCCO` [Ro-61.1790], the Selectivity on ETA [3] is given as 1000. Also, the Ki at ETA [3] (setting [7]) is 0.13 nM; on ETB [1] it was > 130 nM.

On to `CC1(C)CC[C@]2(C(=O)[O-])CC[C@]3(COC(=O)/C=C/c4cc([O-])ccc4NC(=O)/C=C/C(=O)O)C(=CC[C@@H]4[C@@]5(C)CCC(=O)C(C)(C)[C@@H]5CC[C@]43C)[C@@H]2C1.[Na+].[Na+]` [S-0139], for which the Selectivity at ETA [3] is given as 1000. Further, the figures for the Ki on ETA [3] (setting [7]) and on ETB [1] were 1 nM and 1000 nM, respectively.

With `CCCOc1ccc2c(c1)[C@@H](c1ccc(OC)cc1OCC(=O)O)[C@H](C(=O)O)[C@H]2c1ccc2c(c1)OCO2` [SB-209670], the Selectivity at ETA [3] is given as 90.

Consider `CCCOc1ccc2c(c1)[C@@H](c1ccc(OC)cc1OCCO)[C@H](C(=O)O)[C@H]2c1ccc2c(c1)OCO2` [SB-217242], for which the Selectivity on ETA [3] is recorded as 101.

For `CCCc1nn(C)c2c(=O)[nH]c(-c3cc(S(=O)(=O)N4CCN(C)CC4)ccc3OCC)nc12` [Sildenafil, 1-[[3-(6,7-dihydro-1-methyl-7-oxo-3-propyl-1H-pyrazolo[4,3-d]pyrimidin-5-yl)-4-ethoxyphenyl]sulfonyl]-4-methylpiperazine citrate], the Cmax in data set [4] (human, plasma, po, 100 mg, single 100 mg oral sildenafil after 100 mg sitaxsentan daily for seven days, read-out: Cmax) stood at 440 ± 232 ng/mL; in data set [4] (human, plasma, po, 100 mg, single 100 mg oral sildenafil after placebo daily for seven days, read-out: Cmax), 377 ± 208 ng/mL. Moreover, the figures for the AUC(0-inf) in data set [4] (setting [11]) and in data set [4] (setting [12]) were 1650 ng·h/mL and 1300 ng·h/mL, respectively. Further, the AUC0-t in data set [4] (human, plasma, po, 100 mg, single 100 mg oral sildenafil after 100 mg sitaxsentan daily for seven days, read-out: AUC0-t) turned out to be 1580 ng·h/mL; in data set [4] (human, plasma, po, 100 mg, single 100 mg oral sildenafil after placebo daily for seven days, read-out: AUC0-t) it was 1220 ng·h/mL. Moreover, the Vd/F turned out to be 34.8 ± 11.5 L in data set [4] (setting [11]) and 43.6 ± 18.9 L in data set [4] (setting [12]). Further, the half-life in data set [4] (setting [11]) is 2.82 ± 0.45 h; in data set [4] (setting [12]), 2.76 ± 0.45 h. Further, the Tmax in data set [4] (human, plasma, po, 100 mg, single 100 mg oral sildenafil after 100 mg sitaxsentan daily for seven days, read-out: Tmax) was found to be 1.25 h; in data set [4] (human, plasma, po, 100 mg, single 100 mg oral sildenafil after placebo daily for seven days, read-out: Tmax), 1 h. In addition, in data set [4] (in the presence of sitaxsentan), the “Increase of AUC∞ (area under the plasma concentration/time curve)” value is on record as 28%. Further, the “Increase of Cmax (maximum concentration)” value in data set [4] (in the presence of sitaxsentan) is recorded as 18%. The CL/F in data set [4] (setting [8]) worked out at 147 ± 56.4 mL/min; in data set [4] (setting [9]), 184 ± 69.0 mL/min. For the same compound, the λz in data set [4] (setting [8]) turned out to be 0.2514 ± 0.0364 h⁻¹; in data set [4] (setting [9]), 0.2584 ± 0.0444 h⁻¹.

Regarding `Cc1ccc(-c2c(NS(=O)(=O)c3ccc(C(C)(C)CO)cc3)ncnc2OCCOc2ncc(Br)cn2)cc1` [T-0201], the Ki on ETA [3] (setting [7]) is 0.015 nM.

In the case of `COc1nc(C)cnc1NS(=O)(=O)c1cccnc1-c1ccc(CC(C)(C)C(=O)O)cc1` [ZD-1811], the Selectivity on ETA [3] is 1500. Further, the Ki is 1.3 nM at ETA [3] (estimated from the IC∞ value, read-out: Binding K1 (nM) to ETA, K1 estimated from the IC∞ value) and > 2000 nM at ETB [1].

As for FR-139317, the Ki at ETB [1] is 7300 nM.

In the case of “cyclo(D-Glu-L-Ala-allo-D-Ile-L-Leu-D-Trp) [BE-18257B]”, the IC50 on ETA [5] (aortic smooth muscle) is 1400 nM; at ETA [5] (cultured aortic smooth muscle cells), 500 nM; at ETA [5] (ventricle membranes) it was 800 nM. The “Inhibition of binding to receptors in tissues in which ETB predominates” value on ETB [6] is “fails to inhibit binding”.

The term Cmax denotes the maximum level reached in the sampled fluid or tissue. As usually defined, the CL/F is the apparent clearance, not corrected for the fraction that reaches the circulation. As a reminder, the t½ is the time needed for the level to fall by half in the phase considered. A word on the Tmax: it is the time from dosing to the highest level. The term AUC(0-inf) denotes the area under the concentration-time curve extrapolated to infinity. As a reminder, the IC50 is the midpoint of a concentration-inhibition curve.
